In patent publication US20150337013A1, “NOVEL ANTIBACTERIAL AGENTS FOR THE TREATMENT OF GRAM POSITIVE INFECTIONS” (priority 2008, published 2015):
Several values for one entry are separate records, joined by “and”; a condition that tells them apart may be missing. Equal entries are not always repeated.

Tests used:
[1] = test system: Enterococcus faecalis EFS.201 (ATCC 49452); assay type: cell-based; details: ATCC 49452
How it was run: (§1)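 Broth microdilution per CLSI M7-A7 in Mueller Hinton broth supplemented with 50 mg/L calcium, 5×10^5 bacteria per well, 2-fold compound dilutions, DMSO ≤1%. Plates incubated 18-20 hours at 37° C with aeration (200 rpm); MIC (μg/mL) is the lowest concentration giving no visible turbidity.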

[2] = test system: Enterococcus faecium EFM.384, Daptomycin resistant mutant (14-A); assay type: cell-based; details: MHBc with 50 mg/L calcium, 18-20 hours at 37° C.
How it was run: as §1

[3] = test system: Staphylococcus aureus SAU.399 (ATCC 43300), Methicillin and Oxacillin Resistant; assay type: cell-based; details: MHBc with 50 mg/L calcium, 18-20 hours at 37° C.
How it was run: as §1

[4] = test system: Staphylococcus aureus SAU.42 (ATCC 29213); assay type: cell-based; details: ATCC 29213
How it was run: as §1

[5] = test system: C. difficile spores (ATCC #43596); test: Hamster C. difficile infection (CDAD) protection model; assay type: in vivo, Syrian golden hamsters; details: oral 0.5 mg/kg once daily for 5 days (MET 70 mg/kg three times daily for 5 days)
Method: Syrian golden hamsters were pretreated with 10 mg/kg clindamycin subcutaneously 24 hours before bacterial challenge. An inoculum of 20 C. difficile spores (ATCC #43596) in sterile saline was administered orally. Treatment was initiated 4 hours post-inoculation with dH2O, metronidazole (MET), vancomycin (VAN), or a compound of the present invention. Oral dosing regimens for VAN and compounds of Formula I were 0.5 mg/kg once daily for 5 days. MET was administered at 70 mg/kg three times daily for 5 days. CDAD was confirmed as the cause of death by observations at necropsy, including wet tail and/or macroscopic cecal alterations. The % protection provided by each therapy tested was calculated at 1 and 21 days post-dosing.

gram positive bacteria = test: Antimicrobial activity against a panel of organisms, summary statements; assay type: cell-based; details: statement in words
Method: (§2) Compounds according to Formula I were tested for antimicrobial activity against a panel of organisms. Aerobic organisms, Staphylococcus aureus, Enterococcus faecalis and E. faecium, were tested by broth microdilution according to Clinical and Laboratory Standards Institute (CLSI) document M7-A7 (Clinical and Laboratory Standards Institute. Methods for Dilution Antimicrobial Susceptibility Tests for Bacteria that Grow Aerobically; Approved Standard—Seventh Edition. CLSI document M7-A7 [ISBN 1-56238-587-9]. Clinical and Laboratory Standards Institute, 940 West Valley Road, Suite 1400, Wayne, Pa. 19087-1898 USA, 2006) with modifications as described below. Mueller Hinton Broth (MHBc) was supplemented with 50 mg/L calcium (equivalent to human physiological levels of calcium) and assay plates were incubated 18-20 hours at 37° C. with aeration (200 rpm).
(§3) In all cases the final concentration of dimethyl sulfoxide incubated with cells is less than or equal to 1%. For minimum inhibitory concentration (MIC) calculations, 2-fold dilutions of compounds were added to wells of a microtiter plate containing 5×10^5 bacteria in a final volume of 100 μL of media. Following incubation, (18-20 hours at 37° C. with aeration at 200 rpm) growth was confirmed visually by placing plates over a viewing apparatus (stand with a mirror underneath) and then the optical density (OD600) was measured using a SpectraMax 340PC^384 plate reader. Growth was defined as turbidity that could be detected with the naked eye or achieving minimum OD600of 0.1. MIC values (in μg/mL) were defined as the lowest concentration producing no visible turbidity.

[6] = test system: daptomycin resistant Staph. aureus (DRSA), daptomycin resistant E. faecium (DREfm) and daptomycin resistance E. faecalis (DREfs); test: Activity against daptomycin resistant bacteria, summary statement; assay type: cell-based; details: statement in words
Method: as §2, §3

[7] = test system: Enterococcus faecalis EFS.312, Daptomycin resistant mutant (EFA); assay type: cell-based; details: MHBc with 50 mg/L calcium, 18-20 hours at 37° C.
How it was run: as §1

[8] = test system: Staphylococcus aureus SAU.278, Daptomycin resistant mutant (D10); assay type: cell-based; details: MHBc with 50 mg/L calcium, 18-20 hours at 37° C.
How it was run: as §1

[9] = test system: NAP1 Clostridium difficile strain

With `CCCCCCCc1ccc(C(=O)N[C@@H](Cc2c[nH]c3ccccc23)C(=O)N[C@H](CC(N)=O)C(=O)N[C@@H](CC(=O)O)C(=O)N[C@@H]2C(=O)NCC(=O)N[C@@H](CCCN)C(=O)N[C@@H](CC(=O)O)C(=O)N[C@H](C)C(=O)N[C@@H](CC(=O)O)C(=O)NCC(=O)N[C@H](CO)C(=O)N[C@@H]([C@H](C)CC(=O)O)C(=O)N[C@@H](CC(=O)c3ccccc3N)C(=O)O[C@@H]2C)cc1` [Compound 33, N-(4-heptylbenzoyl)-L-tryptophyl-D-asparaginyl-L-α-aspartyl-L-threonylglycyl-L-ornithyl-L-α-aspartyl-D-alanyl-L-α-aspartylglycyl-D-seryl-(3R)-3-methyl-L-α-glutamyl-(αS)-α,2-diamino-γ-oxobenzenebutanoic acid (13→4)-lactone] the “Efs201 MIC” value [1] was 0.5 µg/mL, the “Efm384 MIC” value [2] was 4 µg/mL and 2 µg/mL and the “Sa399 MIC” value [3] was 0.125 µg/mL. For the same compound, the “Sa42 MIC” value [4] was 0.25 µg/mL, the “Mean % Protection 1 Day Post Dosing” value ([5]; 1 day post-dosing) was 85% and the “Mean % Protection 21 Days Post Dosing” value ([5]; 21 days post-dosing) was 69%. For the same compound, the “as active or more active than daptomycin” value (gram positive bacteria) was “as active or more active than daptomycin”, the “more active against bacteria than daptomycin” value (gram positive bacteria) was “more effective than daptomycin” and the “useful against daptomycin resistant strains of bacteria” value [6] was “useful against daptomycin resistant strains of bacteria”.

In the case of `CCCCCc1ccc(/C(C)=C/C(=O)N[C@@H](Cc2c[nH]c3ccccc23)C(=O)N[C@H](CC(N)=O)C(=O)N[C@@H](CC(=O)O)C(=O)N[C@@H]2C(=O)NCC(=O)N[C@@H](CCCN)C(=O)N[C@@H](CC(=O)O)C(=O)N[C@H](C)C(=O)N[C@@H](CC(=O)O)C(=O)NCC(=O)N[C@H](CO)C(=O)N[C@@H]([C@H](C)CC(=O)O)C(=O)N[C@@H](CC(=O)c3ccccc3N)C(=O)O[C@@H]2C)cc1` [Compound 49, N-{1-[(E)-3-(4-pentylphenyl)but-2-enoyl]}-L-tryptophyl-D-asparaginyl-L-α-aspartyl-L-threonylglycyl-L-ornithyl-L-α-aspartyl-D-alanyl-L-α-aspartylglycyl-D-seryl-(3R)-3-methyl-L-α-glutamyl-(αS)-α,2-diamino-γ-oxobenzenebutanoic acid (13→4)-lactone], the “Efs312 MIC” value [7] is reported as 8 µg/mL and 4 µg/mL, the “Efm384 MIC” value [2] is reported as 4 µg/mL and the “Sa278 MIC” value [8] is reported as 1 µg/mL. The “C. diff MIC50 Nap-1” value [9] was 0.25 µg/mL and the “C. diff MIC90 Nap-1” value [9] was 0.50 µg/mL.
